Reference: patent US9198433B2, “Substituted benzene fungicides” (E I DU PONT DE NEMOURS AND COMPANY, priority 2007, dated 2015)
Where two headings read alike, the source gives them in different places. Marks after values point to notes of the source that are not given here.

How the values were obtained:
Type in all cases: in vivo
Phytophthora infestans = details: 200 ppm; tomato late blight
Pythium aphanidermatum = assay: Test L: bluegrass pythium blight, preventive spray on bluegrass seedlings, disease rating
Text: The test compounds were first dissolved in acetone in an amount equal to 3% of the final volume and then suspended at the desired concentration (in ppm) in acetone and purified water (50/50 mix) containing 250 ppm of the surfactant Trem® 014 (polyhydric alcohol esters). The resulting test suspensions were then used in Tests A-L. Spraying a 200 ppm test suspension to the point of run-off on the test plants was the equivalent of an application rate of 500 g/ha. The test suspension was sprayed to the point of run-off on bluegrass seedlings. […] A dash (-) indicates no test results. All results are for 200 ppm except where followed by an “*”, which indicates 40 ppm or “**”, which indicates 50 ppm.

Septoria tritici = assay: Test D: wheat leaf blotch, preventive spray on wheat seedlings, disease rating
Summary of the method: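 Preventive test: one day after run-off spraying (200 ppm, equal to 500 g/ha, unless marked 40 or 50 ppm; acetone/water plus 250 ppm Trem 014), seedlings received S. tritici spore inoculum. Disease scored after 48 h at 24 °C in saturated air and 19 further days at 20 °C.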

Botrytis cinerea = assay: Test F: tomato Botrytis, preventive spray on tomato seedlings, disease rating; details: 200 ppm
Summary of the method: (§1)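 Disease ratings follow a preventive run-off spray of tomato seedlings. Compounds were first dissolved in acetone (3% of volume), then suspended in 50/50 acetone/water containing 250 ppm Trem 014. Test level 200 ppm (equivalent to 500 g/ha) except where marked * for 40 ppm or ** for 50 ppm.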

Septoria nodorum = assay: Test C: wheat glume blotch, preventive spray on wheat seedlings, disease rating
Summary of the method: (§2)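 Applied as preventive foliar sprays to wheat seedlings, to run-off. Formulation: acetone (3% of final volume) predissolution, then acetone/water 50/50 with surfactant at 250 ppm. Rates were 200 ppm except flagged values at 40 or 50 ppm.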

[1] = test system: Erysiphe graminis f. sp. tritici; assay: Test A: wheat powdery mildew, preventive spray on wheat seedlings, disease rating
Summary of the method: as §2

Plasmopara viticola = assay: Test K: grape downy mildew, spray on grape seedlings after inoculation, disease rating
Text: The test compounds were first dissolved in acetone in an amount equal to 3% of the final volume and then suspended at the desired concentration (in ppm) in acetone and purified water (50/50 mix) containing 250 ppm of the surfactant Trem® 014 (polyhydric alcohol esters). The resulting test suspensions were then used in Tests A-L. Spraying a 200 ppm test suspension to the point of run-off on the test plants was the equivalent of an application rate of 500 g/ha. Grape seedlings were inoculated with a spore suspension of Plasmopara viticola (the causal agent of grape downy mildew) and incubated in a saturated atmosphere at 20° C. for 24 h. After a short drying period, the test suspension was sprayed to the point of run-off on the grape seedlings and then moved to a growth chamber at 20° C. for 6 days, after which the test units were placed back into a saturated atmosphere at 20° C. for 24 h. Upon removal, disease ratings were made. […] A dash (-) indicates no test results. All results are for 200 ppm except where followed by an “*”, which indicates 40 ppm or “**”, which indicates 50 ppm.

[2] = test system: Puccinia recondita f. sp. tritici; assay: Test B: wheat leaf rust, preventive spray on wheat seedlings, disease rating
Summary of the method: as §2

Alternaria solani = assay: Test H: tomato early blight, preventive spray on tomato seedlings, disease rating
Summary of the method: as §1

Rhizoctonia oryzae = assay: Test I: turf brown patch, preventive spray on creeping bent grass seedlings, disease rating; details: 200 ppm
Text: The test compounds were first dissolved in acetone in an amount equal to 3% of the final volume and then suspended at the desired concentration (in ppm) in acetone and purified water (50/50 mix) containing 250 ppm of the surfactant Trem® 014 (polyhydric alcohol esters). The resulting test suspensions were then used in Tests A-L. Spraying a 200 ppm test suspension to the point of run-off on the test plants was the equivalent of an application rate of 500 g/ha. The test suspension was sprayed to the point of run-off on creeping bent grass seedlings. […] A dash (-) indicates no test results. All results are for 200 ppm except where followed by an “*”, which indicates 40 ppm or “**”, which indicates 50 ppm.

Fusarium graminearum = details: wheat head scab

Row | SMILES | Percentage Disease Control, Test J (Phytophthora infestans) [%] | Percentage Disease Control, Test L (Pythium aphanidermatum; 40 ppm (*)) | Percentage Disease Control, Test D (Septoria tritici; 40 ppm (*)) | Percentage Disease Control, Test F (Botrytis cinerea) [%] | Percentage Disease Control, Test C (Septoria nodorum; 200 ppm) [%] | Percentage Disease Control, Test A ([1]; 40 ppm (*)) | Percentage Disease Control, Test K (Plasmopara viticola; 200 ppm) [%] | Percentage Disease Control, Test B ([2]; 40 ppm (*)) | Percentage Disease Control, Test H (Alternaria solani; 200 ppm) [%] | Percentage Disease Control, Test I (Rhizoctonia oryzae) [%] | Percentage Disease Control, Test E (Fusarium graminearum; 200 ppm) [%] | Percentage Disease Control, Test C (Septoria nodorum; 40 ppm (*)) | Percentage Disease Control, Test K (Plasmopara viticola; 40 ppm (*)) | Percentage Disease Control, Test L (Pythium aphanidermatum; 200 ppm) [%] | Percentage Disease Control, Test D (Septoria tritici; 200 ppm) [%] | Percentage Disease Control, Test A ([1]; 200 ppm) [%] | Percentage Disease Control, Test B ([2]; 200 ppm) [%] | Percentage Disease Control, Test H (Alternaria solani; 40 ppm (*)) | Percentage Disease Control, Test E (Fusarium graminearum; 40 ppm (*))
1 | COC(=O)NCc1cc(-c2ccn(CCC(C)C)n2)ccc1Cl [Cmpd 22] | 50 | 94* % | 85* % | 0 | 99 | 99* % | 99 | 95* % | 0 | 0 | 99 |  |  |  |  |  |  |  | 
2 | COC(=O)NCc1cc(-c2ccn(CCC[Si](C)(C)C)n2)ccc1Cl [Cmpd 23] | 91 | 93* % | 98* % | 0 |  | 99* % |  | 100* % | 0 | 0 | 99 | 100* % | 99* % |  |  |  |  |  | 
3 | COC(=O)NCc1cc(-c2ccn(Cc3cnc(Cl)s3)n2)ccc1Cl [Cmpd 25] | 0 |  |  | 37 | 78 |  | 63 |  | 76 | 0 | 77 |  |  | 0 | 96 | 91 | 96 |  | 
4 | COC(=O)NCc1cc(-c2ccn(CC#N)n2)ccc1Cl [Cmpd 26] | 60 |  |  | 0 | 0 |  | 6 |  | 0 | 0 | 0 |  |  | 0 | 26 | 0 | 73 |  | 
5 | CC[Si](C)(C)Cn1ccc(-c2ccc(Cl)c(CNC(=O)OC)c2)n1 [Cmpd 27] | 0 |  | 96* % | 0 |  |  | 76 | 99* % | 0 | 0 | 93 | 94* % |  | 0 |  | 96 |  |  | 
6 | COC(=O)NCc1cc(-c2ccn(C)n2)ccc1Cl [Cmpd 28] | 0 |  |  | 0 | 0 |  | 25 |  | 28 | 0 | 0 |  |  | 0 | 86 | 54 | 88 |  | 
7 | COC(=O)NCc1cc(-c2ccn(-c3ccccc3)n2)ccc1Cl [Cmpd 34] | 0 |  | 100* % | 0 |  | 97* % | 78 | 100* % |  | 0 |  | 97* % |  | 0 |  |  |  | 90* % | 98* %
8 | COC(=O)NCc1cc(C(C)=NOCC[Si](C)(C)C)ccc1Cl [Compound 1, methyl N-[[2-chloro-5-[1-[[2-(trimethylsilyl)ethoxy]imino]ethyl]phenyl]-methyl]carbamate] | 0 |  | 100* % | 0 | 100 |  | 66 |  | 0 | 0 | 100 |  |  | 0 |  | 100 | 100 |  | 
9 | COC(=O)NCc1cc(C(C)=NOC[Si](C)(C)c2ccc(Cl)cc2)ccc1Cl [Compound 5] | 0 |  | 100* % | 0 | 99 |  | 23 |  | 77 | 0 | 0 |  |  | 0 |  | 99 | 100 |  | 
